Measurements reported in publication PMC8373237 (Antimicrobial Agents and Chemotherapy, 2021).
Values after ≈ are worked out from the molar mass of the structure shown. Like-named read-outs stand apart in the source and are kept apart here. Marks after values point to notes of the source that are not given here. Square brackets hold non-standard residues; d marks the D form. Peptide text beside a SMILES is read from it. Nphe = O=C(O)CNCc1ccccc1; NPrGly = CCCNCC(=O)O; Sar = CNCC(=O)O

What was measured:
Kinetic solubility = assay type: physicochemical
Protocol: […] Then, […] of 15 mM stock compound was added to make a solution of 120 μM final concentration with 0.8% DMSO. The solution was shaken at 37°C for ∼2 h. The solution was passed over a 0.7- μM glass fiber filter. Then, the solution was diluted 1:4 in acetonitrile to crash out any proteins. The solution was centrifuged at 500 × g for 10 min. Avoiding the pellet, 10 μl of supernatant was added to a fresh plate with 90 μl of acetonitrile. The final dilution is 40 times lower. Next, 10 μl of 40× dilution of solution was injected on the Orbi-trap. A 1 μM standard was used for the ratiometric comparison, and the assay was done in triplicate.

[1] = test system: P. aeruginosa PA103 T3SS (ExoU secretion); assay type: cell-based, Pseudomonas aeruginosa
[2] = test system: Pseudomonas aeruginosa Psc T3SS; conditions: culture-based secretion assay, cited from earlier work
[3] = test system: Yersinia pseudotuberculosis Ysc T3SS; conditions: cited from earlier work; for IC50: culture-based secretion assay
[4] = test system: Hrc1 T3SS, Pseudomonas syringae; conditions: biochemical assay, cited from earlier work; for lowest known inhibitory concentration (∼), hrpA: ref [108]
[5] = test system: Salmonella enterica Typhimurium SPI-1 T3SS; conditions: cited from earlier work
[6] = test system: Chlamydiales T3SS, Chlamydia; conditions: cell-based infection assay, cited from earlier work
[7] = test system: Y. pseudotuberculosis twin arginine translocation (Tat) system; assay type: cell-based, Yersinia pseudotuberculosis; conditions: culture optical density, 4 and 6 h
[8] = test system: Pseudomonas aeruginosa Psc T3SS; conditions: cited from earlier work
[9] = read-out: IC50, inhibition of secretion of T3SS effector ExoU

CCCN1CC(=O)N(Cc2ccccc2)CC(=O)N[C@H](C)C(=O)N[C@@H]([C@@H](C)CC)C(=O)N[C@@H](CC(C)C)C(=O)N[C@H](Cc2ccccc2)C1=O [1EpDN 3Ala, EpD1,2N 3Ala] (cyclo(IL[dF][NPrGly][Nphe][dA]))
solubility (Kinetic solubility): 180 µM (≈ 124 µg/mL) | IC50 ([1]; read-out: IC50 (Table S1)): > 1000 µM

CCCN1CC(=O)N(Cc2ccccc2)CC(=O)N[C@H](CC(C)C)C(=O)N[C@@H](C)C(=O)N[C@@H](CC(C)C)C(=O)N[C@H](Cc2ccccc2)C1=O [1EpDN 4Ala, EpD1,2N 4Ala] (cyclo(AL[dF][NPrGly][Nphe][dL]))
solubility kinetic (Kinetic solubility): 75 µM (≈ 51.8 µg/mL) | IC50 ([1]; read-out: IC50 (Table S1)): > 1000 µM

CCCN1CC(=O)N(Cc2ccccc2)CC(=O)N[C@H](CC(C)C)C(=O)N[C@@H]([C@@H](C)CC)C(=O)N[C@@H](C)C(=O)N[C@H](Cc2ccccc2)C1=O [1EpDN 5Ala, EpD1,2N 5Ala] (cyclo(A[dF][NPrGly][Nphe][dL]I))
solubility kinetic (Kinetic solubility): 127 µM (≈ 87.7 µg/mL) | IC50 ([1]; read-out: IC50 (Table S1)): > 1000 µM

CCCN1CC(=O)N(Cc2ccccc2)CC(=O)N[C@H](CC(C)C)C(=O)N[C@@H]([C@@H](C)CC)C(=O)N[C@@H](CC(C)C)C(=O)N[C@H](C)C1=O [1EpDN 6Ala, EpD1,2N 6Ala] (cyclo(IL[dA][NPrGly][Nphe][dL]))
solubility kinetic (Kinetic solubility): 125 µM (≈ 82.1 µg/mL) | IC50 ([1]; read-out: IC50 (Table S1)): > 1000 µM

CCCN1CC(=O)N(Cc2ccccc2)CC(=O)N[C@H](CC(C)C)C(=O)N[C@@H]([C@@H](C)CC)C(=O)N[C@@H](CC(C)C)C(=O)N[C@H](Cc2ccccc2)C1=O [1EpDN, EpD1,2N] (cyclo(IL[dF][NPrGly][Nphe][dL]))
solubility (Kinetic solubility): 14 to 17 µM (≈ 10.3 to 12.5 µg/mL) | IC50 ([2]; ref [22], read-out: IC50, ExoU secretion): 8.2 µM | IC50 ([3]; ref [22], read-out: IC50, YopE secretion): 14.3 µM | IC50 ([1]; read-out: IC50 (Table S1)): 8.2 µM | IC50 [1, 9]: ~8 µM

CCCN1CC(=O)N(Cc2ccccc2)CC(=O)N[C@@H](CC(C)C)C(=O)N[C@@H]([C@@H](C)CC)C(=O)N[C@@H](CC(C)C)C(=O)N[C@H](Cc2ccccc2)C1=O [2EpDN, 2-EpD1,2N] (cyclo(IL[dF][NPrGly][Nphe]L))
solubility kinetic (Kinetic solubility): 12 µM (≈ 8.8 µg/mL) | IC50 ([1]; read-out: IC50 (Table S1)): 15.3 µM

CCCN1CC(=O)N(Cc2ccccc2)CC(=O)N[C@H](CC(C)C)C(=O)N[C@@H]([C@@H](C)CC)C(=O)N[C@H](CC(C)C)C(=O)N[C@H](Cc2ccccc2)C1=O [3EpDN, 3-EpD1,2N] (cyclo(I[dL][dF][NPrGly][Nphe][dL]))
solubility kinetic (Kinetic solubility): 18 µM (≈ 13.2 µg/mL) | IC50 ([1]; read-out: IC50 (Table S1)): 16 µM

O=C(O)c1ccc(O)cc1 [4-Hydroxybenozic acid]
lowest known inhibitory concentration (∼), hrpA [4]: ∼2.5 mM hrpA^e

CC[C@H](C)[C@@H]1NC(=O)[C@H](CC(C)C)NC(=O)CN(Cc2ccccc2)C(=O)CN(C)C(=O)[C@@H](Cc2ccccc2)NC(=O)[C@@H](CC(C)C)NC1=O [4EpDN 1Sar, 4-EpD1,2N 1Sar] (cyclo(I[dL][dF][Sar][Nphe]L))
solubility (Kinetic solubility; DMEM (no antibiotics)): 6 µM (≈ 4.23 µg/mL) | solubility (Kinetic solubility; M9): 4 µM (≈ 2.82 µg/mL) | T3SS inhibitory activity (ExoU secretion), in words [1]: significantly reduced activity | IC50 ([1]; read-out: IC50 (Table S1)): 19 µM

CCCN1CC(=O)N(Cc2ccccc2)CC(=O)N[C@@H](CC(C)C)C(=O)N[C@@H]([C@@H](C)CC)C(=O)N[C@H](CC(C)C)C(=O)N[C@@H](Cc2ccccc2)C1=O [5EpDN, 5-EpD1,2N] (cyclo(F[NPrGly][Nphe]LI[dL]))
solubility kinetic (Kinetic solubility): 13 µM (≈ 9.53 µg/mL) | IC50 ([1]; read-out: IC50 (Table S1)): 6.3 µM

CCCN1CC(=O)N(Cc2ccccc2)CC(=O)N[C@H](CC(C)C)C(=O)N[C@@H]([C@@H](C)CC)C(=O)N[C@H](CC(C)C)C(=O)N[C@@H](Cc2ccccc2)C1=O [6EpDN, 6-EpD1,2N] (cyclo(F[NPrGly][Nphe][dL]I[dL]))
solubility kinetic (Kinetic solubility): 1 µM (≈ 0.733 µg/mL) | IC50 ([1]; read-out: IC50 (Table S1)): > 1000 µM

CCCN1CC(=O)N(Cc2ccccc2)CC(=O)N[C@H](CC(C)C)C(=O)N[C@@H]([C@@H](C)CC)C(=O)N[C@@H](CC(C)C)C(=O)N[C@@H](Cc2ccccc2)C1=O [8EpDN, 8-EpD1,2N] (cyclo(F[NPrGly][Nphe][dL]IL))
solubility kinetic (Kinetic solubility): 1 µM (≈ 0.733 µg/mL) | IC50 ([1]; read-out: IC50 (Table S1)): 41.5 µM

CCCN1CC(=O)N(Cc2ccccc2)CC(=O)N[C@@H](CC(C)C)C(=O)N[C@H]([C@H](C)CC)C(=O)N[C@H](CC(C)C)C(=O)N[C@@H](Cc2ccccc2)C1=O [9EpDN, 9-EpD1,2N] (cyclo(F[NPrGly][Nphe]L[dI][dL]))
solubility kinetic (Kinetic solubility): 10 µM (≈ 7.33 µg/mL) | IC50 ([1]; read-out: IC50 (Table S1)): 12.8 µM | IC50 [1, 9]: ~13 µM

O=c1cc(-c2ccccc2)oc2cc(O)c(O)c(O)c12 [Baicalein]
IC50 ([5]; culture-based secretion assay, ref [84], [85], read-out: IC50, SopE2 secretion): 3.6 µM | IC50 ([6]; ref [84], [85]): 500 µM

Cc1ccc(S(=O)(=O)/C=C/C#N)cc1 [Bay 11-7082]
growth of SufI-β-lactamase Tat reporter bacteria in penicillin G / Tat inhibition, in words [7]: strongly reduced growth of bacteria

CCOc1cc(CN2N=C(C(=O)Nc3ccc(F)cc3F)SCC2=O)ccc1O [Fluorothiazinon]
lowest known inhibitory concentration (∼), SipA ([5]; footnote printed as a, ref [93]–[96]): ~50 µM | lowest known inhibitory concentration (∼), Chlamydia ([6]; ref [93]–[96]): ∼25^c μM | lowest known inhibitory concentration (∼), ExoT, ExoY secretion ([2]; ref [93]–[96]): ∼20 μg/ml ExoT^b ExoY^b

CCCCc1ccc(C(=O)O)nc1 [Fusaric acid]
IC50 ([5]; culture-based secretion assay, ref [101], read-out: IC50, SipC secretion): 53.5 µM

O=C(N/N=C/c1cc(Br)cc(Br)c1O)c1ccc([N+](=O)[O-])cc1 [INP0007]
lowest known inhibitory concentration (∼), SipAC secretion ([5]; culture-based secretion assay, ref [64], [72]): ∼100 SipAC^b μM | lowest known inhibitory concentration (∼), YopE secretion [3]: ∼50 YopE^b μM

Cc1cc(Cl)cc(/C=N/NC(=O)c2ccc(O)cc2O)c1O [INP0341]
lowest known inhibitory concentration (∼), Chlamydia ([6]; ref [68], [70]): ∼20^c μM | lowest known inhibitory concentration (∼), PA ([8]; cell-based infection assay, ref [68], [70]): ∼80^c μM

O=C(N/N=C/c1c(O)ccc2ccccc12)c1ccc(Cl)cc1 [INP0400]
lowest known inhibitory concentration (∼), Chlamydia ([6]; ref [70]): ∼20^c μM

O=C(N/N=C/c1ccc(O)c(O)c1O)c1ccccc1 [INP0401]
lowest known inhibitory concentration (∼), hrp ([4]; ref [78]): ∼50 hrp^e μM

CC(C)=CCc1c(O)cc2oc(-c3ccc(O)cc3)c(O)c(=O)c2c1O [Licoflavonol]
lowest known inhibitory concentration (∼), SipC secretion ([5]; culture-based secretion assay, ref [86]): ∼50 SipC^b μM

CC(Oc1ccc(Cl)cc1Cl)C(=O)NCc1ccc2c(c1)OCO2 (centres unmarked) [MBX1641]
lowest known inhibitory concentration (∼), Chlamydia ([6]; ref [65]): ∼10^c μM | IC50 ([2]; ref [65], read-out: IC50, ExoS secretion): 10 µM

CCC(Oc1ncc(Cl)cc1Cl)C(=O)NCc1ccc2sccc2c1 (centres unmarked) [MBX2401]
IC50 ([2]; ref [44], read-out: IC50, ExoS secretion): 1.2 µM

O=C(N/N=C/c1cc(Br)cc(Br)c1O)c1cccnc1 [ME0052]
lowest known inhibitory concentration (∼), Yops secretion [3]: ∼20 Yops^b μM

COc1c2cc(c(O)c1OC)CCCC[C@@H](O)CCc1ccc(O)c-2c1 [Myricanol]
IC50 ([5]; footnote printed as a, ref [107], read-out: IC50, SipC): 41.3 µM

O=C1C=CC(=O)N1c1ccccc1 [N-phenylmaleimide]
growth of SufI-β-lactamase Tat reporter bacteria in penicillin G / Tat inhibition, in words [7]: strongly reduced growth of bacteria

COc1ccc(C(C)=O)c(O)c1 [Paeonol]
lowest known inhibitory concentration (∼), Sips secretion ([5]; culture-based secretion assay, ref [99]): ∼95 Sips^b μM

C[n+]1cc2c3c(ccc2c2ccc4cc5c(cc4c21)OCO5)OCO3 [Sanguinarine chloride]
lowest known inhibitory concentration (∼), SipA ([5]; footnotes b and f: secretion assay and translocation assay, ref [88]): ∼5 SipA^b^f μM

COc1cc(C=O)cc(OC)c1O [Syringaldehyde]
lowest known inhibitory concentration (∼), Sips secretion ([5]; culture-based secretion assay, ref [100]): ∼180 Sips^b μM

COc1cc(C(=O)O)ccc1O [Vanillic acid]
lowest known inhibitory concentration (∼), hrpA [4]: ∼2.5 mM hrpA^e

Cc1c(C)c2c(c(C)c1O)CC[C@@](C)(CCC[C@H](C)CCC[C@H](C)CCCC(C)C)O2 [α-tocopherol]
lowest known inhibitory concentration (∼), PA, ExoY ([8]; footnotes c and f: cell-based infection assay, ExoY translocation assay, ref [105]): ∼10^c ExoY^f μM

(-)-Hopeaphenol
lowest known inhibitory concentration (∼), Chlamydia ([6]; ref [97]): ∼25^c μM | lowest known inhibitory concentration (∼), ExoS secretion ([2]; ref [97]): ∼50 ExoS^b μM | IC50 ([3]; ref [97], read-out: IC50, YopD secretion): 3.3 µM
